Test results as given in ChEMBL document CHEMBL1201862, “PubChem BioAssay data set” (2004).
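The compound was tested at five concentrations on cells cultured in 96-well plates, with a 48-hour exposure period. Here, GI50 denotes the concentration required for 50% inhibition of growth.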 Activity calls are given as the source filed them. Rule as the data show it: active = GI50 up to about 1.1 µM and inactive = higher.

What was measured:
Assay in all cases: NCI-60 cell line screen, 48 h
HL-60 = tested on: HL-60
NCI-H226 = tested on: NCI-H226
CAKI-1 = tested on: CAKI-1
RPMI-8226 = tested on: RPMI-8226
PC-3 = tested on: PC-3
SF-539 = tested on: SF-539
HT-29 = tested on: HT-29
NCI-H23 = tested on: NCI-H23
Malme-3M = tested on: Malme-3M
MCF7 = tested on: MCF7
EKVX = tested on: EKVX
SK-MEL-5 = tested on: SK-MEL-5
MOLT-4 = tested on: MOLT-4
OVCAR-3 = tested on: OVCAR-3
SNB-75 = tested on: SNB-75
K562 = tested on: K562
TK-10 = tested on: TK-10
HOP-92 = tested on: HOP-92
786-0 = tested on: 786-0
RXF 393 = tested on: RXF 393

SMILES | GI50 (HL-60) | GI50 (NCI-H226) | GI50 (CAKI-1) | GI50 (RPMI-8226) | GI50 (PC-3) | GI50 (SF-539) | GI50 (HT-29) | GI50 (NCI-H23) | GI50 (Malme-3M) | GI50 (MCF7) | GI50 (EKVX) | GI50 (SK-MEL-5) | GI50 (MOLT-4) | GI50 (OVCAR-3) | GI50 (SNB-75) | GI50 (K562) | GI50 (TK-10) | GI50 (HOP-92) | GI50 (786-0) | GI50 (RXF 393)
COC(=O)C1=C(OC)[C@H]2C#C/C=C\C#C[C@@H]3Nc4c(cc(O)c5c4C(=O)c4ccccc4C5=O)[C@]24O[C@@]34[C@H]1C | < 0.01 µM (active) | < 0.01 µM (active) | < 0.01 µM (active) | < 0.01 µM (active) | < 0.01 µM (active) | < 0.01 µM (active) | < 0.01 µM (active) | < 0.01 µM (active) | < 0.01 µM (active) | < 0.01 µM (active) | < 0.012 µM (active) | < 0.01 µM (active) | < 0.01 µM (active) | < 0.0153 µM (active) | < 0.01 µM (active) | < 0.01 µM (active) | 0.0327 µM (active) | < 0.01 µM (active) | < 0.01 µM (active) | 
CC1=CC[C@@]2(CO)[C@@H]([C@@H]1C)[C@H]1CC[C@@H]3[C@@]4(C)CC[C@H](O)C(C)(C)[C@@H]4CC[C@@]3(C)[C@]1(C)C[C@@H]2O | 11.7 µM (inactive) | 27.2 µM (inactive) | 19.8 µM (inactive) |  | 13.3 µM (inactive) |  | 29.8 µM (inactive) | 17.5 µM (inactive) | 20.3 µM (inactive) | 8.43 µM (inactive) | 33.3 µM (inactive) | 13 µM (inactive) | 21.3 µM (inactive) | 31.5 µM (inactive) |  | 45.7 µM (inactive) | 18.4 µM (inactive) | 16.9 µM (inactive) | 24.5 µM (inactive) | 7.08 µM (inactive)
CN(C)c1ccc(C2SCC(=O)N2c2ccc(Oc3ccc(Cl)cc3)c(Cl)c2)cc1 (stereo not drawn) | 20.3 µM (inactive) | 30.4 µM (inactive) | 32.4 µM (inactive) | 15.2 µM (inactive) | 19.9 µM (inactive) | 18.1 µM (inactive) | 20.2 µM (inactive) | 18.5 µM (inactive) | 15.1 µM (inactive) | 37.2 µM (inactive) | 22.8 µM (inactive) | 19.1 µM (inactive) | 27.8 µM (inactive) | 23.3 µM (inactive) | 17.6 µM (inactive) |  | 48.4 µM (inactive) | 21.8 µM (inactive) | 17.7 µM (inactive) | 
O=C1CCC2C(O)c3cc4c(cc3C(c3ccc5c(c3)OCO5)N12)OCO4 (stereo not drawn) | > 100 µM (inactive) | 67.9 µM (inactive) | > 100 µM (inactive) | > 100 µM (inactive) | > 100 µM (inactive) | 80 µM (inactive) | > 100 µM (inactive) | > 100 µM (inactive) | > 100 µM (inactive) | > 100 µM (inactive) | > 100 µM (inactive) | > 100 µM (inactive) | > 100 µM (inactive) | > 100 µM (inactive) | 16.3 µM (inactive) | > 100 µM (inactive) | > 100 µM (inactive) | 35.2 µM (inactive) | 82 µM (inactive) | 
COC(=O)/C=C\C(C#N)(C#N)/N=C/c1ccsc1 | 0.429 µM (active) | 20.4 µM (inactive) | 2.26 µM (inactive) | 1.25 µM (inactive) | 11.6 µM (inactive) |  | 4.18 µM (inactive) | 7.45 µM (inactive) | 1.51 µM (inactive) | 1.88 µM (inactive) | 4.46 µM (inactive) | 4.66 µM (inactive) | 1.16 µM (inactive) | 1.86 µM (inactive) | 15.7 µM (inactive) | 0.525 µM (active) | 2.36 µM (inactive) | 1.74 µM (inactive) | 1.37 µM (inactive) | 1.78 µM (inactive)
CC(=O)N(CCCCNC(=O)C(F)(F)F)CCCNC(=O)C(F)(F)F | > 100 µM (inactive) | > 100 µM (inactive) |  | > 100 µM (inactive) | > 100 µM (inactive) | > 100 µM (inactive) | > 100 µM (inactive) | > 100 µM (inactive) |  | > 100 µM (inactive) | > 100 µM (inactive) | > 100 µM (inactive) | > 100 µM (inactive) | > 100 µM (inactive) | > 100 µM (inactive) | > 100 µM (inactive) | > 100 µM (inactive) | > 100 µM (inactive) | > 100 µM (inactive) | > 100 µM (inactive)
CSc1ccc(/C=C2\N=C(c3ccccc3)N(c3nc4ccc(Sc5ccccc5)cc4[nH]3)C2=O)cc1 | 14.2 µM (inactive) |  | 21.5 µM (inactive) | 20.2 µM (inactive) | 21.8 µM (inactive) |  | 17.5 µM (inactive) | 26.3 µM (inactive) | 16.6 µM (inactive) | 15.1 µM (inactive) | 31 µM (inactive) | 13.3 µM (inactive) | 22.3 µM (inactive) | 2.01 µM (inactive) | 18.1 µM (inactive) | 14 µM (inactive) | 16.9 µM (inactive) | 33.6 µM (inactive) | 13.9 µM (inactive) | 17.4 µM (inactive)
